According to US20180055797A1, “NON-RACEMIC KETONE SALTS FOR RAPID-ONSET NUTRITIONAL KETOSIS AND METABOLIC THERAPY” (KetoneAid Inc., priority 2016, published 2018):

Experiments:
[1] = Ketone blood concentration after ingestion of 1,3-butanediol (FIG. 2, FIG. 3); format: in vivo, person; settings: for increase in ketones over pre consumption ketone levels: one person (D), two people racemic
Source text: FIG. 2 depicts an exemplary ketone blood concentration after ingestion of racemic 1,3-butanediol.
FIG. 3 depicts a ketone blood concentration after one person ingested (D) 1,3-butanediol, compared to the results of two people ingesting racemic 1,3-butanediol.
It should also be noted that only the D enantiomer is active in the body as a source of extracellular fuel that is then transported into the cells. Ketone blood level meters currently on the market only measure the blood level of the D enantiomer. Products containing racemic salts require two to three times the amount of sodium, calcium and potassium for an equal amount of D-β-hydroxybutyrate readings in the blood. A reason the potential levels of D-β-hydroxybutyrate in the blood is over double with chiral solutions is because the body has to waste energy and uses up some of the D-β-hydroxybutyrate to burn off the unnatural L-O-hydroxybutyrate.
FIG. 2 depicts exemplary results from ingestion of 33 ml racemic 1,3-butanediol. […] For example, as shown, the chiral form provided an increase in ketones of approximately 3.2 mmol/L whereas the racemic form provided approximately 0.9-1.0 mmol/L increases over pre consumption ketone levels.

[2] = cited from earlier work

CC(O)CCO (stereo not drawn) [(D)-1,3-butanediol]
D-β-hydroxybutyrate in the blood, (D) relative to racemic 1,3-butanediol ([1]; 33 ml of each, FIG. 3): over double | increase in ketones over pre consumption ketone levels ([1]; ingestion of 33 ml, FIG. 3): approximately 3.2 mmol/L

CC(O)CCO (racemic) [racemic 1,3-butanediol, 1,3-butanediol]
increase in ketones over pre consumption ketone levels ([1]; ingestion of 33 ml, FIG. 3): 0.9 to 1.0 mmol/L | ketone blood concentration achieved ([1]; ingestion of 33 ml, over a 105-minute period, FIG. 2): ≤ 1 mmol/L

CC(O)CC(=O)[O-].[K+] (racemic) [racemic potassium β-hydroxybutyrate, potassium β-hydroxybutyrate]
ketones level a person would be limited to reaching ([2]; consuming at about 100% of potassium's RDA): approximately 0.5 mmol/L

CC(O)CC(=O)[O-].[Na+] (racemic) [racemic sodium β-hydroxybutyrate, sodium β-hydroxybutyrate]
ketones level a person would be limited to ([2]; consuming at about 100-200% of the RDA for sodium): approximately 0.5 mmol/L
